# According to patent US7160888B2, “[1,8]naphthyridin-2-ones and related compounds for the treatment of schizophrenia” (Warner Lambert Company LLC, priority 2003, dated 2007):
# Target: D2 receptor (Homo sapiens, UniProt P14416)
# Test: [3H]Thymidine uptake assay for D2 intrinsic activity
# Assay type: cell-based
# Conditions: Table 1; test compound 1 μM; 1 μM Quinpirole = 100% intrinsic activity
# Sequence of D2 receptor (P14416 whole entry): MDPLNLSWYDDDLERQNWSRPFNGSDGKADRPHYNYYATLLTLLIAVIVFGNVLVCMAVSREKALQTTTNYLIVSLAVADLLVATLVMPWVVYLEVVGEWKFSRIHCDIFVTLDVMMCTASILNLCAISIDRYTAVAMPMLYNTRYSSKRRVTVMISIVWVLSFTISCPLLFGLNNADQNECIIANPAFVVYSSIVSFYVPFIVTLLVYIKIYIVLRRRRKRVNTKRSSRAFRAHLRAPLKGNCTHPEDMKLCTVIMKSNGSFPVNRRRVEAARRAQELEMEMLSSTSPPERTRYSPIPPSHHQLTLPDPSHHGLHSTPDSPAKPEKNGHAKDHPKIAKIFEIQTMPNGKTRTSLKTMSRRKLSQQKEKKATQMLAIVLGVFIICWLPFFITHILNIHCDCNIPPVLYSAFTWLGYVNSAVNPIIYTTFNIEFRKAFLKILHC
row,Structure (SMILES),Emax at 1 µM [%]
1,"CC1CC(=O)Nc2nc(OCCCCN3CCN(c4cccc(Cl)c4Cl)CC3)ccc21 (single isomer, unassigned) [Example D2a, 7-{4-[4-(2,3-Dichloro-phenyl)-piperazin-1-yl]-butoxy}-4-methyl-3,4-dihydro-1H-[1,8]naphthyridin-2-one]",20
2,"CC1Cc2ccc(OCCCCN3CCN(c4cccc(Cl)c4Cl)CC3)nc2NC1=O (single isomer, unassigned) [Example D6a, 7-{4-[4-(2,3-Dichloro-phenyl)-piperazin-1-yl]-butoxy}-3-methyl-3,4-dihydro-1H-[1,8]naphthyridin-2-one]",17
3,"O=C1CCc2ccc(OCCCCN3CCN(c4ccc(F)c(Cl)c4Cl)CC3)nc2N1 [Example A8, 7-{4-[4-(2,3-Dichloro-4-fluoro-phenyl)-piperazin-1-yl]-butoxy}-3,4-dihydro-1H-[1,8]naphthyridin-2-one]",7
4,"O=C1CCc2ccc(OCCCCN3CCN(c4ccc(F)cc4Cl)CC3)nc2N1 [Example A9, 7-{4-[4-(2-Chloro-4-fluoro-phenyl)-piperazin-1-yl]-butoxy}-3,4-dihydro-1H-[1,8]naphthyridin-2-one]",9
5,"O=C1CCc2ccc(OCCCCN3CCN(c4ccccc4-c4ccccc4)CC3)nc2N1 [Example A11, 7-[4-(4-Biphenyl-2-yl-piperazin-1-yl)-butoxy]-3,4-dihydro-1H-[1,8]naphthyridin-2-one]",6
6,"O=C1CCc2ccc(OCCCCN3CCN(c4cc(Cl)ccc4Cl)CC3)nc2N1 [Example A12, 7-{4-[4-(2,5-Dichloro-phenyl)-piperazin-1-yl]-butoxy}-3,4-dihydro-1H-[1,8]naphthyridin-2-one]",11
7,"Cc1cc(N2CCN(CCCCOc3ccc4c(n3)NC(=O)CC4)CC2)c(Cl)cc1F [Example A13, 7-{4-[4-(2-Chloro-4-fluoro-5-methyl-phenyl)-piperazin-1-yl]-butoxy}-3,4-dihydro-1H-[1,8]naphthyridin-2-one]",21
8,"Cc1ccc(Cl)cc1N1CCN(CCCCOc2ccc3c(n2)NC(=O)CC3)CC1 [Example A14, 7-{4-[4-(5-Chloro-2-methyl-phenyl)-piperazin-1-yl]-butoxy}-3,4-dihydro-1H-[1,8]naphthyridin-2-one]",7
9,"Cc1c(F)ccc(N2CCN(CCCCOc3ccc4c(n3)NC(=O)CC4)CC2)c1Cl [Example A15, 7-{4-[4-(2-Chloro-4-fluoro-3-methyl-phenyl)-piperazin-1-yl]-butoxy}-3,4-dihydro-1H-[1,8]naphthyridin-2-one]",4
10,"CCc1cccc(N2CCN(CCCCOc3ccc4c(n3)NC(=O)CC4)CC2)c1 [Example A16, 7-{4-[4-(3-Ethyl-phenyl)-piperazin-1-yl]-butoxy}-3,4-dihydro-1H-[1,8]naphthyridin-2-one]",16
11,"COc1c(Cl)cccc1N1CCN(CCCCOc2ccc3c(n2)NC(=O)CC3)CC1 [Example A17, 7-{4-[4-(3-Chloro-2-methoxy-phenyl)-piperazin-1-yl]-butoxy}-3,4-dihydro-1H-[1,8]naphthyridin-2-one]",15
12,"COc1cccc(N2CCN(CCCCOc3ccc4c(n3)NC(=O)CC4)CC2)c1OC [Example A19, 7-{4-[4-(2,3-Dimethoxy-phenyl)-piperazin-1-yl]-butoxy}-3,4-dihydro-1H-[1,8]naphthyridin-2-one]",10
13,"CCOc1ccccc1N1CCN(CCCCOc2ccc3c(n2)NC(=O)CC3)CC1 [Example A20, 7-{4-[4-(2-Ethoxy-phenyl)-piperazin-1-yl]-butoxy}-3,4-dihydro-1H-[1,8]naphthyridin-2-one]",19
14,"COc1cccc(N2CCN(CCCCOc3ccc4c(n3)NC(=O)CC4)CC2)c1Cl [Example A22, 7-{4-[4-(2-Chloro-3-methoxy-phenyl)-piperazin-1-yl]-butoxy}-3,4-dihydro-1H-[1,8]naphthyridin-2-one]",36
15,"CC(C)Oc1ccc(Cl)cc1N1CCN(CCCCOc2ccc3c(n2)NC(=O)CC3)CC1 [Example A25, 7-{4-[4-(5-Chloro-2-isopropoxy-phenyl)-piperazin-1-yl]-butoxy}-3,4-dihydro-1H-[1,8]naphthyridin-2-one]",27
16,"CC(C)Oc1ccccc1N1CCN(CCCCOc2ccc3c(n2)NC(=O)CC3)CC1 [Example A26, 7-{4-[4-(2-Isopropoxy-phenyl)-piperazin-1-yl]-butoxy}-3,4-dihydro-1H-[1,8]naphthyridin-2-one]",33

# Same assay, conditions: Table 2; test compound 1 μM; 1 μM Quinpirole = 100% intrinsic activity
row,Structure (SMILES),Emax at 1 µM [%]
1,"O=C1CCc2ccc(OCCCCN3CCN(c4cccc5[nH]c(=O)oc45)CC3)nc2N1 [Example A1′, 7-{4-[4-(2-Oxo-2,3-dihydro-benzooxazol-7-yl)-piperazin-1-yl]-butoxy}-3,4-dihydro-1H-[1,8]naphthyridin-2-one]",73
2,"O=C1CCc2ccc(OCCCCN3CCN(c4cccc5c4OCC5)CC3)nc2N1 [Example A2′, 7-{4-[4-(2,3-Dihydro-benzofuran-7-yl)-piperazin-1-yl]-butoxy}-3,4-dihydro-1H-[1,8]naphthyridin-2-one]",21
3,"CC1(C)Cc2cccc(N3CCN(CCCCOc4ccc5c(n4)NC(=O)CC5)CC3)c2O1 [Example A3′, 7-{4-[4-(2,2-Dimethyl-2,3-dihydro-benzofuran-7-yl)-piperazin-1-yl]-butoxy}-3,4-dihydro-1H-[1,8]naphthyridin-2-one]",37
4,"O=C1CCc2ccc(OCCCCN3CCN(c4cccc5c4OCCC5)CC3)nc2N1 [Example A4′, 7-[4-(4-Chroman-8-yl-piperazin-1-yl)-butoxy]-3,4-dihydro-1H-[1,8]naphthyridin-2-one]",18
5,"CC1(C)C=Cc2cccc(N3CCN(CCCCOc4ccc5c(n4)NC(=O)CC5)CC3)c2O1 [Example A5′, 7-{4-[4-(2,2-Dimethyl-2H-chromen-8-yl)-piperazin-1-yl]-butoxy}-3,4-dihydro-1H-[1,8]naphthyridin-2-one]",31
6,"CC1(C)CCc2cccc(N3CCN(CCCCOc4ccc5c(n4)NC(=O)CC5)CC3)c2O1 [Example A6′, 7-{4-[4-(2,2-Dimethyl-chroman-8-yl)-piperazin-1-yl]-butoxy}-3,4-dihydro-1H-[1,8]naphthyridin-2-one]",42
7,"O=C1CCc2ccc(OCCCCN3CCN(c4cccc5c4OC4(C=C5)CCCC4)CC3)nc2N1 [Example A7′, 7-{4-[4-(Spiro[chromene-2,1′-cyclopentan]-8-yl)-piperazin-1-yl]-butoxy}-3,4-dihydro-1H-[1,8]naphthyridin-2-one]",34
8,"O=C1CCc2ccc(OCCCCN3CCN(c4cccc5c4OC4(CCCC4)CC5)CC3)nc2N1 [Example A8′, 7-{4-[4-(3,4-Dihydrospiro[chromene-2,1′-cyclopentan]-8-yl)-piperazin-1-yl]-butoxy}-3,4-dihydro-1H-[1,8]naphthyridin-2-one]",30
9,"CC1C=Cc2cccc(N3CCN(CCCCOc4ccc5c(n4)NC(=O)CC5)CC3)c2O1 (stereo not drawn) [Example A9′, 7-{4-[4-(2-Methyl-2H-chromen-8-yl)-piperazin-1-yl]-butoxy}-3,4-dihydro-1H-[1,8]naphthyridin-2-one]",30
10,"O=C1CCc2ccc(OCCCCN3CCN(c4cccc5c4CCO5)CC3)nc2N1 [Example A11′, 7-{4-[4-(2,3-Dihydro-benzofuran-4-yl)-piperazin-1-yl]-butoxy}-3,4-dihydro-1H-[1,8]naphthyridin-2-one]",17
11,"O=C1CCc2ccc(OCCCCN3CCN(c4cccc5c4CCCO5)CC3)nc2N1 [Example A13′, 7-[4-(4-Chroman-5-yl-piperazin-1-yl)-butoxy]-3,4-dihydro-1H-[1,8]naphthyridin-2-one]",14
12,"O=C1CCc2ccc(OCCCCN3CCN(c4cccc5c4OCCO5)CC3)nc2N1 [Example A16′, 7-{4-[4-(2,3-Dihydro-benzo[1,4]dioxin-5-yl)-piperazin-1-yl]-butoxy}-3,4-dihydro-1H-[1,8]naphthyridin-2-one]",15
13,"O=C1CCc2ccc(OCCCCN3CCN(c4cccc5c4OCCCO5)CC3)nc2N1 [Example A17′, 7-{4-[4-(3,4-Dihydro-2H-benzo[b][1,4]dioxepin-6-yl)-piperazin-1-yl]-butoxy}-3,4-dihydro-1H-[1,8]naphthyridin-2-one]",15
14,"O=C1CCc2ccc(OCCCCN3CCN(c4cccc5c4OC(F)(F)C(F)(F)O5)CC3)nc2N1 [Example A18′, 7-{4-[4-(2,2,3,3-Tetrafluoro-2,3-dihydro-benzo[1,4]dioxin-5-yl)-piperazin-1-yl]-butoxy}-3,4-dihydro-1H-[1,8]naphthyridin-2-one]",13
15,"O=C1CCc2ccc(OCCCCN3CCN(c4cccc5c4OC(F)(F)O5)CC3)nc2N1 [Example A19′, 7-{4-[4-(2,2-Difluoro-benzo[1,3]dioxol-4-yl)-piperazin-1-yl]-butoxy}-3,4-dihydro-1H-[1,8]naphthyridin-2-one]",40
16,"CC1(C)COc2c(cccc2N2CCN(CCCCOc3ccc4c(n3)NC(=O)CC4)CC2)C1=O [Example A21′, 7-{4-[4-(3,3-Dimethyl-4-oxo-chroman-8-yl)-piperazin-1-yl]-butoxy}-3,4-dihydro-1H-[1,8]naphthyridin-2-one]",24
17,"O=C1CCc2ccc(OCCCCN3CCN(c4cccc5ccoc45)CC3)nc2N1 [Example A23′, 7-[4-(4-Benzofuran-7-yl-piperazin-1-yl)-butoxy]-3,4-dihydro-1H-[1,8]naphthyridin-2-one]",39
18,"O=C1CCc2ccc(OCCCCN3CCN(c4cccc5cc[nH]c45)CC3)nc2N1 [Example A24′, 7-{4-[4-(1H-Indol-7-yl)-piperazin-1-yl]-butoxy}-3,4-dihydro-1H-[1,8]naphthyridin-2-one]",6
19,"O=C1CCc2ccc(OCCCCN3CCN(c4cccc5[nH]ccc45)CC3)nc2N1 [Example A25′, 7-{4-[4-(1H-Indol-4-yl)-piperazin-1-yl]-butoxy}-3,4-dihydro-1H-[1,8]naphthyridin-2-one]",36
20,"Cn1ccc2c(N3CCN(CCCCOc4ccc5c(n4)NC(=O)CC5)CC3)cccc21 [Example A26′, 7-{4-[4-(1-Methyl-1H-indol-4-yl)-piperazin-1-yl]-butoxy}-3,4-dihydro-1H-[1,8]naphthyridin-2-one]",12
